Results from patent US8609718B2, “Pharmaceutical composition used in treatment of hyperproliferative skin conditions and malignant melanomas comprising pachastrissamine as active ingredient” (Catholic University Industry Academy Cooperation Foundation, priority 2009, dated 2013).

Experiments:
p-FoxO3a (Ser 253) = assay: Western blotting of p-FoxO3a (Ser 253); format: cell-based; conditions: HaCaT, A375, B16F10, 10 μg/ml, FIGS. 4B, 4C
Method: In the same manner as described in Example 4-1, a HaCaT cell line and malignant melanoma cell lines (A375 and B16F10) were treated with pachastrissamine and phytosphingosine at a concentration of 10 μg/ml for 30 minutes and 60 minutes, respectively. Then, western blotting was carried out using p-FoxO3a (Ser 253) antibody.

HaCaT cell = assay: Phase-contrast microscope morphology analysis of surviving cells; format: cell-based, human; conditions: HaCaT, 24 hours
Method: HaCaT, B16F10 and A375 cell lines were cultured in the same manner as described in Example 1. The cultured HaCaT cell line was plated onto a 60 mm plate at a concentration of 5×10^4 cells/well, and cultured in a CO2 incubator (37° C., 5%) for 24 hours. The cultured respective cells were divided into 4 groups. One group was added with only pachastrissamine (PA) at a concentration of 10 μg/ml; another group was added with lithium chloride (apoptosis inhibiting material) (at a final concentration of 300 nM) as well as pachastrissamine at a concentration of 10 μg/ml (PA+Li); and a third group was added with only lithium chloride (Li). The last group was a negative control group (Con) and was added with nothing. These groups were cultured in a CO2 incubator (37° C., 5%) for 24 hours, and then the number of cells were measured in the same manner as described in Example 2-2.
The four groups of HaCaT cell samples were washed with PBS, and then surviving cells were subjected to morphology analysis through a phase-contrast microscope (see FIG. 2f).

[1] = tested on: malignant melanoma cell line A375; assay: MTT cell viability analysis (cytotoxicity), A375; format: cell-based; conditions: 24 hours, FIG. 1
Method: Pachastrissamine's cytotoxicity on a HaCaT cell line and a malignant melanoma cell line was researched through MTT cell viability analysis.
First, each of a HaCaT cell line (German Cancer Research, obtained from prof. N. Fuseni, Germany), and two kinds of malignant melanoma cell lines, B16F10 (B16) and A375 were inoculated into a DMEM (Dulbecco's Modified Eagle's Medium) culture medium added with 10% FBS (Thermo Fisher Scientific Inc.), 100 unit/ml penicillin, and 100 μg/ml streptomycin, and then cultured in a CO2 incubator (Form a Scientific, Inc.) (37° C., 5%).
The cultured HaCaT, B16F10, and A375 cells were plated onto a 96-well plate at a concentration of 5×10^4 cells/well, and cultured in a CO2 incubator (37° C., 5%) for 24 hours. The cells in respective wells were treated with pachastrissamine and phytosphingosine at various concentrations of 0, 0.9, 1.8, 3.7, 7.5, 10 μg/ml, and cultured in a CO2 incubator (37° C., 5%) for 24 hours. After the culturing, in a state where the culture medium existed, each well was added with 5 mg/ml MTT reagent at a concentration of 20 μl/[…], and cultured in an incubator for 2 hours. After 2 hours, the culture medium was removed, and each well was added with 150 μl of DMSO (dimethyl sulfoxide). Then, a spectrophotometer was used to measure the absorbance at 540 nm, thereby analyzing the cell viability. Herein, the cell viability was represented as a relative value with respect to 100% of cell viability in a control group not treated with pachastrissamine and phytosphingosine.

ERK and FoxO3a = assay: Immunoprecipitation of ERK, binding between ERK and FoxO3a; format: cell-based, human; conditions: HaCaT; 10 μg/ml; 24 hours; anti-ERK immunoprecipitation; FIG. 4F
Method: In the same manner, a HaCaT cell line was treated with pachastrissamine, and immunoprecipitation was used to determine the degree of binding between ERK and FoxO3a, and the degree of FoxO3a ubiquitination caused by interaction. In order to carry out immunoprecipitation, the cells were plated on a 100 mm plate, and cultured in a CO2 incubator (37° C., 5%) for 24 hours. After about 12 hours of serum starvation, the cultured cell line was treated with 10 μg/ml of pachastrissamine for 24 hours. The cell line treated with pachastrissamine and another cell line not treated with pachastrissamine were resuspended in the RIPA buffer as described above, and then put on ice for 30 minutes so that the cells could be completely lysed. The lysate was centrifuged at 14000 rpm for 30 minutes, and the supernatant was collected. A BCA protein analysis kit (Pierce, Rockford, Ill.) was used to determine the concentration of each sample, and the samples in the same amount were added with anti-ERK antibody in the same amount, and reacted at 4° C. for 2 hours. Then, each of the samples was added with 10 μl of protein G-agarose (GenDEPOT) and reacted at 4° C. for 10 hours, and then centrifuged at 3000 rpm for 1 minute, washed with RIPA buffer, and centrifuged again. Then, the precipitated protein G-agarose was collected, and electrophoresis was carried out.

HaCaT cell line = assay: TUNEL analysis of apoptosis; format: cell-based, human; conditions: 10 μg/ml, 24 hours, control: only a limited part, FIG. 2E
Method: A HaCaT cell line was cultured in the same manner as described in Example 1. The cultured HaCaT cell line was plated onto a 60 mm plate at a concentration of 5×10^4 cells/well, and cultured in a CO2 incubator (37° C., 5%) for 24 hours. The cultured cells were treated with pachastrissamine at a concentration of 10 μg/ml, cultured in a CO2 incubator (37° C., 5%) for 24 hours, and subjected to TUNEL analysis.
In order to carry out TUNEL analysis based on ApopTagFluorescein In Situ Apoptosis Detection Kit (Millipore), cells were cultured in a cover slip, and washed with PBS (pH 7.4). In order to completely fix cells, the cells were reacted in a PBS solution including 4% paraformaldehyde at room temperature for 30 minutes. Then, in order to make the cells permeable, the cells were washed with a PBS solution, and reacted in a PBS solution including 0.1% Triton X-100 at room temperature for 5 minutes. For cell marking, the cells were washed with PBS twice, and then diluted TUNEL reaction mixture was added to the cover slip. After incubating in a humidified chamber at 37° C. for 60 minutes, the cover slip was washed. The washed cover slip was reacted with a DAPI solution at room temperature for about 10 minutes, washed with PBS, mounted on a slide, sufficiently dried in a dark place, and analyzed by a fluorescent microscope. […]

CCCCCCCCCCCCCC[C@@H]1OC[C@H](N)[C@@H]1O [pachastrissamine]
amount of expressed p-FoxO3a after 30 minutes (p-FoxO3a (Ser 253); 30 minutes): reduced
expression of p-FoxO3a after 60 minutes (p-FoxO3a (Ser 253); 60 minutes): increased an expression of p-FoxO3a
number of surviving cells compared to negative control group (HaCaT cell; 10 μg/ml, phase-contrast microscope, FIG. 2f): the number of surviving cells was significantly reduced
cell division extent increased by lithium chloride, effect of pachastrissamine (HaCaT cell; pachastrissamine 10 μg/ml + lithium chloride 300 nM): inhibited
cell viability (number of surviving cells) with increasing concentration ([1]; 0, 0.9, 1.8, 3.7, 7.5, 10 μg/ml): the number of surviving cells was reduced
cytotoxicity compared with phytosphingosine [1]: lower cytotoxicity than phytosphingosine
degree of binding between ERK and FoxO3a (ERK and FoxO3a): significantly decreased
apoptosis (TUNEL positive) among observed cell nuclei (DAPI stained) (HaCaT cell line): most of observed cell nuclei showed apoptosis
